Where “and” joins values, the source holds several entries; their conditions need not be identical. Equal values may be shown once. Toxic doses and inconclusive results are not listed. Rule as the data show it: active = T/C of 150% or more; inactive = T/C below 125%.
Tested on: L1210 leukemia ip in BDF1 mice, survival T/C
Assay: NCI In Vivo Anticancer Drug Screen. Data for tumor model L1210 Leukemia (intraperitoneal) in B6D2F1 (BDF1) mice
Details: endpoint: mean survival time, higher = longer survival
How it was run: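 Survival endpoint. Drug-treated group vs vehicle group, expressed as T divided by C. Tumor passaged by transplantation.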

[1] = dose: 100.0 mg/kg/injection, schedule: Q01DX001 (ip), vehicle: carboxymethylcellulose (CMC)
[2] = dose: 200.0 mg/kg/injection, schedule: Q01DX001 (ip), vehicle: carboxymethylcellulose (CMC)
[3] = dose: 400.0 mg/kg/injection, schedule: Q01DX001 (ip), vehicle: carboxymethylcellulose (CMC)
[4] = dose: 100.0 mg/kg/injection, schedule: Q01DX009 (ip), vehicle: Klucel (hydroxypropylcellulose) (HPC)
[5] = dose: 100.0 mg/kg/injection, schedule: Q04DX003 (ip), vehicle: Klucel (hydroxypropylcellulose) (HPC)
[6] = dose: 200.0 mg/kg/injection, schedule: Q01DX009 (ip), vehicle: Klucel (hydroxypropylcellulose) (HPC)
[7] = dose: 200.0 mg/kg/injection, schedule: Q04DX003 (ip), vehicle: Klucel (hydroxypropylcellulose) (HPC)
[8] = dose: 400.0 mg/kg/injection, schedule: Q01DX009 (ip), vehicle: Klucel (hydroxypropylcellulose) (HPC)
[9] = dose: 400.0 mg/kg/injection, schedule: Q04DX003 (ip), vehicle: Klucel (hydroxypropylcellulose) (HPC)
[10] = dose: 100.0 mg/kg/injection, schedule: Q01DX009 (ip), vehicle: saline with Tween-80
[11] = dose: 100.0 mg/kg/injection, schedule: Q04DX003 (ip), vehicle: saline with Tween-80
[12] = dose: 200.0 mg/kg/injection, schedule: Q04DX003 (ip), vehicle: saline with Tween-80
[13] = dose: 50.0 mg/kg/injection, schedule: Q01DX009 (ip), vehicle: saline with Tween-80
[14] = dose: 100.0 mg/kg/injection, schedule: Q01DX001 (ip), vehicle: saline
[15] = dose: 200.0 mg/kg/injection, schedule: Q01DX001 (ip), vehicle: saline
[16] = dose: 5.0 mg/kg/injection, schedule: Q01DX001 (ip), vehicle: saline

Measured: T/C

O=C1CN(C2OC(CO)C(O)C2O)C(=O)NC1=O (stereo not given)
inactive: dose: 132.0 mg/kg/injection, schedule: Q01DX Z (ip), vehicle: carboxymethylcellulose (CMC) 107 % of control | dose: 200.0 mg/kg/injection, schedule: Q01DX Z (ip), vehicle: carboxymethylcellulose (CMC) 110 % of control | dose: 299.0 mg/kg/injection, schedule: Q01DX Z (ip), vehicle: carboxymethylcellulose (CMC) 124 % of control | dose: 449.0 mg/kg/injection, schedule: Q01DX Z (ip), vehicle: carboxymethylcellulose (CMC) 107 % of control

CC(=O)Nc1ccc(OCCOC(=O)Nc2ccc(Cl)c(C(F)(F)F)c2)cc1
inactive: dose: 12.5 mg/kg/injection, schedule: Q01DX009 (ip), vehicle: carboxymethylcellulose (CMC) 95 % of control and 100 % of control | dose: 25.0 mg/kg/injection, schedule: Q01DX009 (ip), vehicle: carboxymethylcellulose (CMC) 95 % of control and 97 % of control | dose: 25.0 mg/kg/injection, schedule: Q04DX002 (ip), vehicle: carboxymethylcellulose (CMC) 92 % of control and 93 % of control | dose: 50.0 mg/kg/injection, schedule: Q04DX002 (ip), vehicle: carboxymethylcellulose (CMC) 95 % of control and 90 % of control | [1] 97 % of control and 101 % of control | dose: 100.0 mg/kg/injection, schedule: Q04DX003 (ip), vehicle: carboxymethylcellulose (CMC) 92 % of control and 101 % of control | [2] 97 % of control and 102 % of control | dose: 200.0 mg/kg/injection, schedule: Q04DX002 (ip), vehicle: carboxymethylcellulose (CMC) 94 % of control | dose: 200.0 mg/kg/injection, schedule: Q04DX003 (ip), vehicle: carboxymethylcellulose (CMC) 92 % of control | [3] 97 % of control and 87 % of control | dose: 400.0 mg/kg/injection, schedule: Q01DX009 (ip), vehicle: carboxymethylcellulose (CMC) 88 % of control and 90 % of control | dose: 400.0 mg/kg/injection, schedule: Q04DX002 (ip), vehicle: carboxymethylcellulose (CMC) 94 % of control and 91 % of control | dose: 400.0 mg/kg/injection, schedule: Q04DX003 (ip), vehicle: carboxymethylcellulose (CMC) 92 % of control and 97 % of control

COC(=O)c1ccccc1NN=Nc1ccccc1[N+](=O)[O-]
inactive: [4] 93 % of control | [5] 97 % of control and 86 % of control | [6] 88 % of control | [7] 98 % of control and 89 % of control | [8] 97 % of control | [9] 95 % of control and 97 % of control

CC1(c2ccco2)C(=O)NC(=O)N1C(=O)CCl (stereo not given)
inactive: [10] 112 % of control | [11] 96 % of control | dose: 200.0 mg/kg/injection, schedule: Q01DX009 (ip), vehicle: saline with Tween-80 101 % of control | [12] 103 % of control | dose: 400.0 mg/kg/injection, schedule: Q04DX003 (ip), vehicle: saline with Tween-80 101 % of control

CNC(=O)c1nc(C)c(C)[nH]c1=O
inactive: dose: 25.0 mg/kg/injection, schedule: Q01DX009 (ip), vehicle: water 98 % of control | dose: 50.0 mg/kg/injection, schedule: Q01DX009 (ip), vehicle: water 96 % of control | dose: 100.0 mg/kg/injection, schedule: Q01DX009 (ip), vehicle: water 98 % of control | dose: 100.0 mg/kg/injection, schedule: Q04DX003 (ip), vehicle: water 103 % of control | dose: 200.0 mg/kg/injection, schedule: Q01DX009 (ip), vehicle: water 89 % of control | dose: 200.0 mg/kg/injection, schedule: Q04DX003 (ip), vehicle: water 95 % of control

CC(=O)Oc1ccc(OC(C)=O)c2cc3ccccc3cc12
inactive: [1] 87 % of control | [2] 93 % of control | [3] 91 % of control

COc1cc(C=O)ccc1OC(=O)Nc1ccc([N+](=O)[O-])cc1Cl
inactive: [4] 98 % of control | [5] 103 % of control | [6] 98 % of control | [7] 97 % of control | [8] 98 % of control | [9] 105 % of control

CNC(C)(C)C(SSSC(c1ccc(Cl)cc1)C(C)(C)NC)c1ccc(Cl)cc1 (stereo not given)
inactive: dose: 12.5 mg/kg/injection, schedule: Q01DX009 (ip), vehicle: saline with Tween-80 103 % of control | dose: 12.5 mg/kg/injection, schedule: Q04DX003 (ip), vehicle: saline with Tween-80 98 % of control | dose: 25.0 mg/kg/injection, schedule: Q01DX009 (ip), vehicle: saline with Tween-80 98 % of control | dose: 25.0 mg/kg/injection, schedule: Q04DX003 (ip), vehicle: saline with Tween-80 100 % of control | [13] 97 % of control | dose: 50.0 mg/kg/injection, schedule: Q04DX003 (ip), vehicle: saline with Tween-80 96 % of control

O=C(O)/C(=C\c1ccc([N+](=O)[O-])cc1)c1cccc2ccccc12
inactive: dose: 50.0 mg/kg/injection, schedule: Q04DX003 (ip), vehicle: Klucel (hydroxypropylcellulose) (HPC) 94 % of control | [4] 93 % of control | [5] 89 % of control | [6] 98 % of control | [7] 91 % of control

Nc1ncnc2c1ncn2C1SC(CO)C(O)C1O (stereo not given)
inactive: dose: 50.0 mg/kg/injection, schedule: Q01DX001 (ip), vehicle: saline 93 % of control and 103 % of control | [14] 102 % of control and 105 % of control | dose: 100.0 mg/kg/injection, schedule: Q01DX005 (ip), vehicle: saline 108 % of control and 95 % of control | [15] 104 % of control and 100 % of control | dose: 200.0 mg/kg/injection, schedule: Q01DX005 (ip), vehicle: saline 109 % of control and 95 % of control

CN(C)N=C(Cc1ccccc1)Cc1ccccc1
inactive: [13] 97 % of control | [10] 103 % of control | [11] 103 % of control | [12] 106 % of control

CCCC(=O)Nc1ccc(N=Nc2ccccc2)cc1
inactive: dose: 25.0 mg/kg/injection, schedule: Q01DX009 (ip), vehicle: Klucel (hydroxypropylcellulose) (HPC) 100 % of control | dose: 50.0 mg/kg/injection, schedule: Q01DX009 (ip), vehicle: Klucel (hydroxypropylcellulose) (HPC) 92 % of control | [4] 94 % of control and 96 % of control | [6] 95 % of control

OCC1OC(n2cc(Br)c3c(NO)ncnc32)C(O)C1O (stereo not given)
inactive: [16] 103 % of control | dose: 10.0 mg/kg/injection, schedule: Q01DX001 (ip), vehicle: saline 101 % of control

O=C(Cc1cccc2ccccc12)NO
inactive: [4] 95 % of control | [5] 95 % of control | [6] 102 % of control | [7] 95 % of control | [8] 101 % of control | [9] 104 % of control

Cc1cc(N)c(C)c2ccncc12
inactive: [16] 103 % of control

O=C1OCC/C1=C/CCC/C=C1\CCOC1=O
inactive: [4] 101 % of control | [5] 100 % of control | [6] 102 % of control | [7] 94 % of control | [8] 88 % of control | [9] 92 % of control

COc1ccc(Cl)cc1NC(=O)Nc1ccc(Nc2ccccc2)cc1
inactive: [4] 104 % of control | [5] 101 % of control | [6] 101 % of control | [7] 98 % of control | [8] 86 % of control | [9] 97 % of control

O=C(NC/C(Br)=C/Br)Nc1c2ccccc2nc2ccccc12
inactive: dose: 10.0 mg/kg/injection, schedule: Q01DX009 (ip), vehicle: Klucel (hydroxypropylcellulose) (HPC) 96 % of control | dose: 20.0 mg/kg/injection, schedule: Q01DX009 (ip), vehicle: Klucel (hydroxypropylcellulose) (HPC) 107 % of control | dose: 40.0 mg/kg/injection, schedule: Q01DX009 (ip), vehicle: Klucel (hydroxypropylcellulose) (HPC) 89 % of control | dose: 75.0 mg/kg/injection, schedule: Q01DX009 (ip), vehicle: Klucel (hydroxypropylcellulose) (HPC) 89 % of control | [5] 102 % of control | [7] 94 % of control | [9] 94 % of control

OCC1OC(Oc2cc(O)cc3[o+]c(-c4cc(O)c(O)c(O)c4)c(OC4(CO)OC(CO)C(O)C4O)cc23)C(O)C(O)C1O (stereo not given)
inactive: [1] 95 % of control | [2] 98 % of control | [3] 98 % of control

O=C1Nc2cccc3cc(O)cc1c23
inactive: [14] 105 % of control | [15] 87 % of control | dose: 400.0 mg/kg/injection, schedule: Q01DX001 (ip), vehicle: saline 92 % of control

C[n+]1cccc2cc(Br)ccc21
inactive: dose: 5.0 mg/kg/injection, schedule: Q01DX001 (ip), vehicle: other 100 % of control | dose: 10.0 mg/kg/injection, schedule: Q01DX001 (ip), vehicle: other 107 % of control | dose: 20.0 mg/kg/injection, schedule: Q01DX001 (ip), vehicle: other 111 % of control | dose: 40.0 mg/kg/injection, schedule: Q01DX001 (ip), vehicle: other 105 % of control
